# From US12121521B2, “Uses of salt-inducible kinase (SIK) inhibitors for treating osteoporosis” (The General Hospital Corporation, priority 2016, dated 2024)
# Entries after “also recorded” stand apart in the source; their conditions may differ.
# What was measured:
# Ocy454 cells = experiment: cAMP radioimmunoassay; assay type: cell-based, mouse; conditions: 20 minutes; FIG. 14B
# Protocol: Cells, in 96 well plates, were treated with indicated ligands for 20 minutes at room temperature in the presence of the phosphodiesterase inhibitor 3-isobutyl-1-methylxanthine (IBMX, Sigma I5879, 2 mM). The medium was then removed and cells were lysed in 50 mM HCl and transferred to −80C. Thawed lysates were diluted 1:5 with dH2O, and an 10 μl aliquot was assessed for cAMP content by radioimmunoassay using ^125I-cAMP analog as a tracer and unlabeled cAMP to generate a standard curve.
# male mice = experiment: YKL-05-099 once daily for 2 weeks: bone RNA, static and dynamic histomorphometry; assay type: in vivo, mouse; conditions: 6 mg/kg once daily i.p.
# Protocol: Whole cell extracts were generated, followed by immunoblotting. […] RNA was prepared, and gene expression analyzed by RT-qPCR. […] 2 hours later, animals were sacrificed, RNA was prepared from femurs, and gene expression analyzed by RT-qPCR. […] Animals were sacrificed 2 hours after the final dose, and RNA from femurs analyzed for the indicated genes. BGLAP encodes osteocalcin. * indicated p<0.01 versus vehicle, # indicates p<0.05 versus vehicle. (FIGS. 8E to 8K), static and dynamic histomorphometry were performed on the tibia from the same mice as in FIG. 8D. Each data point represents an individual mouse, p values for each difference are shown on the graph. (FIG. 8L) Representative photomicrograph showing increased osteoblasts on cancellous bone surfaces from YKL-05-099-treated mice.
# To determine effects on bone mass and cellular composition/activity, static and dynamic histomorphometry were performed. […] Other than the observed reduction in osteoclast numbers, these findings are quite similar to the effects of once daily PTH treatment.
# All animals were housed in the Center for Comparative Medicine at the Massachusetts General Hospital, and all experiments were approved by the hospital's Subcommittee on Research Animal Care. HDAC5-null mice (70) and HDAC4 f/f mice (71) were generously provided by Dr. Eric Olson (University of Texas Southwestern Medical Center, Dallas, TX) and were backcrossed to C57B/6 mice for at least 6 generations. DMP1-Cre mice (27) were generously provided by Dr. Jian (Jerry) Feng (Texas A&M University, Baylor College of Dentistry, Dallas, TX). “DKO” HDAC4/5 mice were of the following genotype: HDAC4f/f; HDAC5−/−; DMP1-Cre. SIK2 f/f mice were as described (40), and were bred to DMP1-Cre animals to generate SIK2^OcyKO mice. ES cells carrying the targeted SOST allele Sost^tm1(KOMP)Vleg, in which the SOST coding sequence has been replaced by LacZ and floxed Neo cassette, were obtained from the Knockout Mouse Project (KOMP) Repository. Clone VG10069-BE8 was injected into blastocysts, and the resulting SOST+/− mice were crossed to HDAC5 mutant animals to generate compound heterozygous mice. In all instances, skeletal phenotypes were evaluated in 8 week-old sex-matched littermates. For acute effects of PTH on bone gene expression, animals were treated with PTH (1-34, 300 μg/kg, subcutaneous administration) and then sacrificed 90 minutes later. For acute effects of YKL-05-093 on bone gene expression, animals were treated with the indicated doses of compound (dissolved in PBS+25 mM HCl) or solvent via intraperitoneal injections, and sacrificed 2 hours later. […] For in vivo sclerostin antibody treatment, mice were treated twice weekly with sclerostin antibody (50 mg/kg, subcutaneous administration, generously provided by Dr. Michael Ominsky, Amgen) for 6 weeks. Power calculations were performed based on pilot experiments in which standard deviations and magnitudes of effect sizes were estimated. For experiments in which mice were treated with either vehicle or PTH (or YKL-05-093), mice were assigned to alternating treatment groups in consecutive order.
# Right tibia from 8-week-old mice were subjected to bone histomorphometric analysis. The mice were injected 20 mg/kg body weight of calcein and 40 mg/kg body weight of demeclocycline on 7 and 2 days before necropsy, respectively. The tibia was dissected and fixed in 70% ethanol for 3 days. Fixed bones were dehydrated in graded ethanol, then infiltrated and embedded in methylmethacrylate without demineralization. Undecalcified 4-μm-thick longitudinal sections were obtained using microtome (RM2255, Leica Biosystems., IL, USA). Sections were left unstained for dynamic parameters measurement, and consecutive sections were stained with tartrate-resistant acid phosphatase and counterstained with toluidine blue for measurement of cellular parameters. […]
Compound,cAMP levels (Ocy454 cells),RANKL levels in bone RNA (male mice),SOST in bone RNA (male mice),bone formation rate (male mice),cancellous bone mass (male mice),matrix apposition rate (male mice),mineralizing surface (male mice),osteoblast marker genes (osteocalcin and COL1A1) (male mice),osteoblast numbers (male mice),osteoclast numbers (male mice),osteoid surface (male mice)
COc1ccc(N2C(=O)N(c3c(C)cccc3C)Cc3cnc(Nc4ccc(C5CCN(C)CC5)c(OC)c4)nc32)c(OC)c1 [YKL-05-093],does not induce cAMP generation; also recorded: without increasing cAMP levels,–,–,–,–,–,–,–,–,–,–
COc1ccc(N2C(=O)N(c3c(C)cccc3Cl)Cc3cnc(Nc4ccc(C5CCN(C)CC5)cc4OC)nc32)nc1 [YKL-05-099],–,increased,trend towards reduced SOST,increased bone formation rate,increased cancellous bone mass,trend towards increased matrix apposition rate,increased mineralizing surface,significantly increased,increased osteoblast numbers,reduced osteoclast numbers,increased
